Tests used:
[1] = human, 1 %
Protocol: The enamel softening method is used to determine the potential of oral care compositions to damage (or not to damage) dental enamel with repeated exposure.
A core of sound human enamel with a diameter of 3-4 mm was extracted from whole human teeth. The cores were mounted in dental acrylic and the surfaces were ground using 600 grit paper. Increasingly fine lapping papers were then used to polish the surface to a 1 um polish. Samples were sonicated in deionized water for 30 min. Enamel specimens were then rinsed with deionized water and wiped to remove any residual polish. Each enamel specimen was inspected and samples with large cracks or uneven calcification were discarded. […]
Also on the day before the experiment, the Vickers hardness of each enamel specimen was measured using a hardness indenter at three separate locations spread across the enamel surface. A 50g load was applied for 10 seconds, and the diagonal lengths of the resulting indents were measured using a 20× magnification objective. […]
On the day following the cycling experiment, the post-cycling hardness was obtained for each specimen using a similar procedure to that described for the pre-cycling hardness measurements. The change in hardness was calculated for each specimen by subtracting the pre-cycling hardness from the post-cycling hardness measurement. […]

Slurry pH of composition = format: physicochemical; conditions: Table 10, treatments of the enamel softening study (1:3 slurry of toothpaste to water)
From the text: The pH of the oral care compositions as described herein can be from about 4 to about 7, from about 4 to about 6, from about 4.5 to about 6.5, or from about 4.5 to about 5.5. The pH of a mouthrinse solution can be determined as the pH of the neat solution. The pH of a dentifrice composition can be determined as a slurry pH, which is the pH of a mixture of the dentifrice composition and water, such as a 1:4, 1:3, or 1:2 mixture of the dentifrice composition and water.

Δ SMH (change in surface microhardness) [1]: 175.68
Slurry pH (Slurry pH of composition): 2.19
Structure (SMILES): O=C(O)CC(O)(CC(=O)O)C(=O)O [1% Citric Acid, citric acid]
